Test results: ChEMBL document CHEMBL1133591, “Potent derivatives of glucagon-like peptide-1 with pharmacokinetic properties suitable for once daily administration” (J Med Chem, 2000)
Numbered stars: 1 amine (or outer) side, 2 acyl side, 3 side chain; on linkers, the order of the positions; unused ones are H or OH. Side chains are listed from the residue outwards. Peptide text beside a SMILES is read from it. * marks the point of attachment. ξ: configuration not given here. Desaminohistidyl = O=C(CCc1c[nH]cn1)*; ξγGlu = O=C(O)C(CCC(=O)[*:2])N[*:1]; Stearoyl = CCCCCCCCCCCCCCCCCC(=O)*; Palmitoyl = CCCCCCCCCCCCCCCC(=O)*; Octanoyl = CCCCCCCC(=O)*

These molecules were tested against Glucagon-like peptide 1 receptor (Homo sapiens, UniProt P43220) (assay: Potency measured using recombinant human GLP-1 receptor expressed in Baby Hamster Kidney (BHK)cells).
Assay type: cell-based

Glucagon-like peptide 1 receptor, sequence (P43220 whole entry): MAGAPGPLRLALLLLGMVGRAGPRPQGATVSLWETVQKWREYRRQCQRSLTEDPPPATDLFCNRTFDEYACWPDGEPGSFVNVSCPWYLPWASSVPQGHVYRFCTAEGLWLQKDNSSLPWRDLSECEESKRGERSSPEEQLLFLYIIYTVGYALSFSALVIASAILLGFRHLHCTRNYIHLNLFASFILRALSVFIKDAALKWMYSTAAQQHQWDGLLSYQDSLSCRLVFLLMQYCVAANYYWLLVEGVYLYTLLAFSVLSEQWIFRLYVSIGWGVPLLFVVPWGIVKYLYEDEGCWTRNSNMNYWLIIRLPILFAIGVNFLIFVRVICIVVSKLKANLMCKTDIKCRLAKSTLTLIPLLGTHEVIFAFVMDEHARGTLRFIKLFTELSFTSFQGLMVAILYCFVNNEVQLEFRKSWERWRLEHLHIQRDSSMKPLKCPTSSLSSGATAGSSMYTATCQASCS

CCCCCCCC(=O)NCCCC[C@H](NC(=O)[C@@H](NC(=O)[C@H](CC(C)C)NC(=O)[C@H](Cc1c[nH]c2ccccc12)NC(=O)[C@H](C)NC(=O)[C@@H](NC(=O)[C@H](Cc1ccccc1)NC(=O)[C@H](CCC(=O)O)NC(=O)[C@H](CCCN=C(N)N)NC(=O)[C@H](C)NC(=O)[C@H](C)NC(=O)[C@H](CCC(N)=O)NC(=O)CNC(=O)[C@H](CCC(=O)O)NC(=O)[C@H](CC(C)C)NC(=O)[C@H](Cc1ccc(O)cc1)NC(=O)[C@H](CO)NC(=O)[C@H](CO)NC(=O)[C@@H](NC(=O)[C@H](CC(=O)O)NC(=O)[C@H](CO)NC(=O)[C@@H](NC(=O)[C@H](Cc1ccccc1)NC(=O)[C@@H](NC(=O)CNC(=O)[C@H](CCC(=O)O)NC(=O)[C@H](C)NC(=O)CCc1c[nH]cn1)[C@@H](C)O)[C@@H](C)O)C(C)C)[C@@H](C)CC)C(C)C)C(=O)NCC(=O)N[C@@H](CCCN=C(N)N)C(=O)NCC(=O)O (Desaminohistidyl-AEGTFTSDVSSYLEGQAAREFIAWLVK(Octanoyl)GRG-OH) and CCCCCCCC(=O)NC(CCC(=O)NCCCC[C@H](NC(=O)[C@@H](NC(=O)[C@H](CC(C)C)NC(=O)[C@H](Cc1c[nH]c2ccccc12)NC(=O)[C@H](C)NC(=O)[C@@H](NC(=O)[C@H](Cc1ccccc1)NC(=O)[C@H](CCC(=O)O)NC(=O)[C@H](CCCN=C(N)N)NC(=O)[C@H](C)NC(=O)[C@H](C)NC(=O)[C@H](CCC(N)=O)NC(=O)CNC(=O)[C@H](CCC(=O)O)NC(=O)[C@H](CC(C)C)NC(=O)[C@H](Cc1ccc(O)cc1)NC(=O)[C@H](CO)NC(=O)[C@H](CO)NC(=O)[C@@H](NC(=O)[C@H](CC(=O)O)NC(=O)[C@H](CO)NC(=O)[C@@H](NC(=O)[C@H](Cc1ccccc1)NC(=O)[C@@H](NC(=O)CNC(=O)[C@H](CCC(=O)O)NC(=O)[C@H](C)NC(=O)CCc1c[nH]cn1)[C@@H](C)O)[C@@H](C)O)C(C)C)[C@@H](C)CC)C(C)C)C(=O)NCC(=O)N[C@@H](CCCN=C(N)N)C(=O)NCC(=O)O)C(=O)O (stereo not given in full) (Desaminohistidyl-AEGTFTSDVSSYLEGQAAREFIAWLVK([ξγGlu-Octanoyl])GRG-OH) are within 1.5-fold of each other in EC50: 236 pM for the first, 169 pM for the second.

Compared with CCCCCCCCCCCCCCCC(=O)NC(CCC(=O)NCCCC[C@H](NC(=O)[C@H](C)NC(=O)[C@H](C)NC(=O)[C@H](CCC(N)=O)NC(=O)CNC(=O)[C@H](CCC(=O)O)NC(=O)[C@H](CC(C)C)NC(=O)[C@H](Cc1ccc(O)cc1)NC(=O)[C@H](CO)NC(=O)[C@H](CO)NC(=O)[C@@H](NC(=O)[C@H](CC(=O)O)NC(=O)[C@H](CO)NC(=O)[C@@H](NC(=O)[C@H](Cc1ccccc1)NC(=O)[C@@H](NC(=O)CNC(=O)[C@H](CCC(=O)O)NC(=O)[C@H](C)NC(=O)CCc1c[nH]cn1)[C@@H](C)O)[C@@H](C)O)C(C)C)C(=O)N[C@@H](CCC(=O)O)C(=O)N[C@@H](Cc1ccccc1)C(=O)N[C@H](C(=O)N[C@@H](C)C(=O)N[C@@H](Cc1c[nH]c2ccccc12)C(=O)N[C@@H](CC(C)C)C(=O)N[C@H](C(=O)N[C@@H](CCCN=C(N)N)C(=O)NCC(=O)N[C@@H](CCCN=C(N)N)C(=O)NCC(=O)O)C(C)C)[C@@H](C)CC)C(=O)O (stereo not given in full), CCCCCCCCCCCCCCCC(=O)NC(CCC(=O)NCCCC[C@H](NC(=O)[C@@H](NC(=O)[C@H](CC(C)C)NC(=O)[C@H](Cc1c[nH]c2ccccc12)NC(=O)[C@H](C)NC(=O)[C@@H](NC(=O)[C@H](Cc1ccccc1)NC(=O)[C@H](CCC(=O)O)NC(=O)[C@H](CCCN=C(N)N)NC(=O)[C@H](C)NC(=O)[C@H](C)NC(=O)[C@H](CCC(N)=O)NC(=O)CNC(=O)[C@H](CCC(=O)O)NC(=O)[C@H](CC(C)C)NC(=O)[C@H](Cc1ccc(O)cc1)NC(=O)[C@H](CO)NC(=O)[C@H](CO)NC(=O)[C@@H](NC(=O)[C@H](CC(=O)O)NC(=O)[C@H](CO)NC(=O)[C@@H](NC(=O)[C@H](Cc1ccccc1)NC(=O)[C@@H](NC(=O)CNC(=O)[C@H](CCC(=O)O)NC(=O)[C@H](C)NC(=O)CCc1c[nH]cn1)[C@@H](C)O)[C@@H](C)O)C(C)C)[C@@H](C)CC)C(C)C)C(=O)NCC(=O)N[C@@H](CCCN=C(N)N)C(=O)NCC(=O)O)C(=O)O (stereo not given in full) (Desaminohistidyl-AEGTFTSDVSSYLEGQAAREFIAWLVK([ξγGlu-Palmitoyl])GRG-OH) is 3.4-fold higher in EC50: 687 pM for the first, 2360 pM for the second.

Compared with CCCCCCCCCCCCCCCCCC(=O)NC(CCC(=O)NCCCCC(NC(=O)CNC(=O)[C@H](CCCN=C(N)N)NC(=O)CNC(=O)[C@H](CCCN=C(N)N)NC(=O)[C@@H](NC(=O)[C@H](CC(C)C)NC(=O)[C@H](Cc1c[nH]c2ccccc12)NC(=O)[C@H](C)NC(=O)[C@@H](NC(=O)[C@H](Cc1ccccc1)NC(=O)[C@H](CCC(=O)O)NC(=O)[C@H](CCCN=C(N)N)NC(=O)[C@H](C)NC(=O)[C@H](C)NC(=O)[C@H](CCC(N)=O)NC(=O)CNC(=O)[C@H](CCC(=O)O)NC(=O)[C@H](CC(C)C)NC(=O)[C@H](Cc1ccc(O)cc1)NC(=O)[C@H](CO)NC(=O)[C@H](CO)NC(=O)[C@@H](NC(=O)[C@H](CC(=O)O)NC(=O)[C@H](CO)NC(=O)[C@@H](NC(=O)[C@H](Cc1ccccc1)NC(=O)[C@@H](NC(=O)CNC(=O)[C@H](CCC(=O)O)NC(=O)[C@H](C)NC(=O)[C@@H](N)Cc1c[nH]cn1)[C@@H](C)O)[C@@H](C)O)C(C)C)[C@@H](C)CC)C(C)C)C(=O)O)C(=O)O (stereo not given in full), CCCCCCCCCCCCCCCC(=O)NC(CCC(=O)NCCCCC(NC(=O)CNC(=O)[C@H](CCCN=C(N)N)NC(=O)CNC(=O)[C@H](CCCN=C(N)N)NC(=O)[C@@H](NC(=O)[C@H](CC(C)C)NC(=O)[C@H](Cc1c[nH]c2ccccc12)NC(=O)[C@H](C)NC(=O)[C@@H](NC(=O)[C@H](Cc1ccccc1)NC(=O)[C@H](CCC(=O)O)NC(=O)[C@H](CCCN=C(N)N)NC(=O)[C@H](C)NC(=O)[C@H](C)NC(=O)[C@H](CCC(N)=O)NC(=O)CNC(=O)[C@H](CCC(=O)O)NC(=O)[C@H](CC(C)C)NC(=O)[C@H](Cc1ccc(O)cc1)NC(=O)[C@H](CO)NC(=O)[C@H](CO)NC(=O)[C@@H](NC(=O)[C@H](CC(=O)O)NC(=O)[C@H](CO)NC(=O)[C@@H](NC(=O)[C@H](Cc1ccccc1)NC(=O)[C@@H](NC(=O)CNC(=O)[C@H](CCC(=O)O)NC(=O)[C@H](C)NC(=O)[C@@H](N)Cc1c[nH]cn1)[C@@H](C)O)[C@@H](C)O)C(C)C)[C@@H](C)CC)C(C)C)C(=O)O)C(=O)O (stereo not given in full) is 2.2-fold lower in EC50: 115 pM for the first, 53 pM for the second. The second is the more potent here.

First: CCCCCCCCCCCCCCCC(=O)NC(CCC(=O)NCCCC[C@H](NC(=O)[C@H](CO)NC(=O)[C@@H](NC(=O)[C@H](CC(=O)O)NC(=O)[C@H](CO)NC(=O)[C@@H](NC(=O)[C@H](Cc1ccccc1)NC(=O)[C@@H](NC(=O)CNC(=O)[C@H](CCC(=O)O)NC(=O)[C@H](C)NC(=O)[C@@H](N)Cc1c[nH]cn1)[C@@H](C)O)[C@@H](C)O)C(C)C)C(=O)N[C@@H](Cc1ccc(O)cc1)C(=O)N[C@@H](CC(C)C)C(=O)N[C@@H](CCC(=O)O)C(=O)NCC(=O)N[C@@H](CCC(N)=O)C(=O)N[C@@H](C)C(=O)N[C@@H](C)C(=O)N[C@@H](CCCN=C(N)N)C(=O)N[C@@H](CCC(=O)O)C(=O)N[C@@H](Cc1ccccc1)C(=O)N[C@H](C(=O)N[C@@H](C)C(=O)N[C@@H](Cc1c[nH]c2ccccc12)C(=O)N[C@@H](CC(C)C)C(=O)N[C@H](C(=O)N[C@@H](CCCN=C(N)N)C(=O)NCC(=O)N[C@@H](CCCN=C(N)N)C(=O)NCC(=O)O)C(C)C)[C@@H](C)CC)C(=O)O (stereo not given in full) (H-HAEGTFTSDVSK([ξγGlu-Palmitoyl])YLEGQAAREFIAWLVRGRG-OH)
Second: CCCCCCCCCCCCCCCC(=O)NC(CCC(=O)NCCCC[C@H](NC(=O)[C@@H](N)Cc1c[nH]cn1)C(=O)N[C@@H](CCC(=O)O)C(=O)NCC(=O)N[C@H](C(=O)N[C@@H](Cc1ccccc1)C(=O)N[C@H](C(=O)N[C@@H](CO)C(=O)N[C@@H](CC(=O)O)C(=O)N[C@H](C(=O)N[C@@H](CO)C(=O)N[C@@H](CO)C(=O)N[C@@H](Cc1ccc(O)cc1)C(=O)N[C@@H](CC(C)C)C(=O)N[C@@H](CCC(=O)O)C(=O)NCC(=O)N[C@@H](CCC(N)=O)C(=O)N[C@@H](C)C(=O)N[C@@H](C)C(=O)N[C@@H](CCCN=C(N)N)C(=O)N[C@@H](CCC(=O)O)C(=O)N[C@@H](Cc1ccccc1)C(=O)N[C@H](C(=O)N[C@@H](C)C(=O)N[C@@H](Cc1c[nH]c2ccccc12)C(=O)N[C@@H](CC(C)C)C(=O)N[C@H](C(=O)N[C@@H](CCCN=C(N)N)C(=O)NCC(=O)N[C@@H](CCCN=C(N)N)C(=O)NCC(=O)O)C(C)C)[C@@H](C)CC)C(C)C)[C@@H](C)O)[C@@H](C)O)C(=O)O (stereo not given in full)
The EC50 of the first is 36-fold lower: 35.2 pM for the first, 1260 pM for the second. The first is the more potent here.

Compared with CCCCCCCCCCCCCCCCCC(=O)NC(CCC(=O)NCCCC[C@H](NC(=O)CNC(=O)[C@H](CCCN=C(N)N)NC(=O)[C@@H](NC(=O)[C@H](CC(C)C)NC(=O)[C@H](Cc1c[nH]c2ccccc12)NC(=O)[C@H](C)NC(=O)[C@@H](NC(=O)[C@H](Cc1ccccc1)NC(=O)[C@H](CCC(=O)O)NC(=O)[C@H](CCCN=C(N)N)NC(=O)[C@H](C)NC(=O)[C@H](C)NC(=O)[C@H](CCC(N)=O)NC(=O)CNC(=O)[C@H](CCC(=O)O)NC(=O)[C@H](CC(C)C)NC(=O)[C@H](Cc1ccc(O)cc1)NC(=O)[C@H](CO)NC(=O)[C@H](CO)NC(=O)[C@@H](NC(=O)[C@H](CC(=O)O)NC(=O)[C@H](CO)NC(=O)[C@@H](NC(=O)[C@H](Cc1ccccc1)NC(=O)[C@@H](NC(=O)CNC(=O)[C@H](CCC(=O)O)NC(=O)[C@H](C)NC(=O)[C@@H](N)Cc1c[nH]cn1)[C@@H](C)O)[C@@H](C)O)C(C)C)[C@@H](C)CC)C(C)C)C(=O)NCC(=O)O)C(=O)O (stereo not given in full) (H-HAEGTFTSDVSSYLEGQAAREFIAWLVRGK([ξγGlu-Stearoyl])G-OH), CCCCCCCCCC(CCCCC(=O)NCCCCC(NC(=O)CNC(=O)[C@H](CCCN=C(N)N)NC(=O)CNC(=O)[C@H](CCCN=C(N)N)NC(=O)[C@@H](NC(=O)[C@H](CC(C)C)NC(=O)[C@H](Cc1c[nH]c2ccccc12)NC(=O)[C@H](C)NC(=O)[C@@H](NC(=O)[C@H](Cc1ccccc1)NC(=O)[C@H](CCC(=O)O)NC(=O)[C@H](CCCN=C(N)N)NC(=O)[C@H](C)NC(=O)[C@H](C)NC(=O)[C@H](CCC(N)=O)NC(=O)CNC(=O)[C@H](CCC(=O)O)NC(=O)[C@H](CC(C)C)NC(=O)[C@H](Cc1ccc(O)cc1)NC(=O)[C@H](CO)NC(=O)[C@H](CO)NC(=O)[C@@H](NC(=O)[C@H](CC(=O)O)NC(=O)[C@H](CO)NC(=O)[C@@H](NC(=O)[C@H](Cc1ccccc1)NC(=O)[C@@H](NC(=O)CNC(=O)[C@H](CCC(=O)O)NC(=O)[C@H](C)NC(=O)[C@@H](N)Cc1c[nH]cn1)[C@@H](C)O)[C@@H](C)O)C(C)C)[C@@H](C)CC)C(C)C)C(=O)O)C(=O)O (stereo not given in full) is 21-fold lower in EC50: 116 pM for the first, 5.6 pM for the second.
